Counter-ions that a name gives are not always drawn.
Experiments:
[1] = literature, animal models; cited from earlier work
rat [2] = experiment: Transdermal experiment in one single rat (shaved neck); assay type: in vivo
Experimental: The test animals used were male albino Wistar rats weighing between 200 and 370 g. Food and water were available to the rats all the time. They were set in a normal 12 hour day night rhythm. Before the operation the animals resided in a larger cage with a group of rats. During the experiments they were alone in a cage with the dimensions 25*25*35 cm. The blood sampling was performed in freely moving animals, which were all conscious. In this way potential behavioral changes from the treatment could be registered. The operation consisted of the application of a cannula in the vena jugularis. After an experiment the rats were given at least 24 hours to recover.
This amount of cream was applied with a spatula on the shaved neck of the rat, weighing about 350 g.
After one hour and 10 minutes, about five droplets of DMSO were smeared on to the rat neck.
In a comparative experiment 7 mg of Apomorphine hydrochloride solid was dissolved in DMSO (70 microliters).

rat [3] = experiment: Dopaminergic activity in rats after s.c. injection in Viscoleo; assay type: in vivo; details: two rats, ca 3.7 mg/kg (corr. to 2 mg/kg ApoxHCl), 3.7 mg/mL in Viscoleo
Experimental: The maximum volume of an oil solution/suspension to be injected intramuscularly or subcutaneously is 2-4 mL. This is feasible for the preparations of the aporphine derivatives of the present invention. The accumulated daily dose used in apomorphine s.c. therapy in Parkinson's disease is 4-10 times about 1-4 mg (4-40 mg/day). For the animal experiments performed in the pharmacological research, which led to the present invention, ca 2 mg Apomorphine×HCl (or equivalent molar amount of compounds according to Formula I above, as the base or as a suitable salt or ion-pair) was dissolved in 1 mL of an oil (sesame oil, Viscoleo or another approved oil) and the mixture was gently heated (max 50° C.) shaken in a test tube shaker and ultrasonicated for a short time (minutes) until the mixture became a homogeneous solution or suspension. If necessary, the test compound was first dissolved in 50-300 μL DMSO, water, t-BuOH, PEG, benzylbenzoate, or another suitable and approved solvent or mixtures thereof, before adding the oil (see above) to a total volume of 1 mL.
First 2 eq. were added and after a night at room temperature the solvent was evaporated and the residue was redissolved in CH2Cl2 and a sample was taken with a pipette and chromatographed on a pipette filled with Al2O3. Elution was performed with first CH2Cl2 and then with CH2Cl2:EtOH (9:1). […]

[4] = background statement; cited from earlier work
[5] = comparative: 2 mg in 20 microliters DMSO on shaved neck
[6] = about 5 mg in Fenuril cream plus DMSO

CC(=O)Oc1ccc2c(c1OC(C)=O)-c1cccc3c1C(C2)N(C)CC3 (centres unmarked) [10,11-Di-acetyl-apomorphine]
activity relative to parent compound apomorphine [1]: almost as potent as apomorphine itself

CN1CCc2cccc3c2[C@H]1Cc1ccc(O)c(O)c1-3 [Apomorphine hydrochloride]
dopaminergic activity after end of stereotypy (rat [2]; [5]): No other signs of dopaminergic activity | duration of intense stereotypy (rat [2]; [5]): about two | time to stereotypy (rat [2]; [5]): about 30 minutes

CCCCCCCCCCCCCCCC(=O)Oc1ccc2c(c1OC(=O)CCCCCCCCCCCCCCC)-c1cccc3c1C(C2)N(C)CC3 (centres unmarked) [di-C16-Apo]
effect (dopaminergic activity) (rat [3]): No effect whatsoever

CN1CCc2cccc3c2C1Cc1ccc(OC(=O)C(C)(C)C)c(OC(=O)C(C)(C)C)c1-3 (centres unmarked) [dipivaloyl ester pro-drug]
activity relative to parent compound apomorphine [1]: much less active than the parent compound

N[C@@H](Cc1ccc(O)c(O)c1)C(=O)O [levodopa]
fraction of drug converted to DA in peripheral tissues [4]: about 95% | fraction of drug that enters the brain [4]: less than 1%

Mono-Butyryl Apomorphine [Example 2]
behaviour the next day at 10:00 a.m. (rat [2]; [6]): still active showing signs of chewing | time at which chewing, sniffing and yawning were still observed (rat [2]; [6]): ~6 h | duration of stereotypy (rat [2]; about 5 mg in Fenuril cream, after DMSO): at least two | time to typical dopaminergic syndrome including locomotor activity (rat [2]; about 5 mg in Fenuril cream, time after DMSO): About 30 minutes | time to intense yawning, sniffing, penile licking and chewing (rat [2]; about 5 mg in Fenuril cream, time after about five droplets of DMSO smeared on neck): about 10 minutes | dopaminergic effects (rat [2]; about 5 mg in about 120 mg Fenuril hand cream on shaved neck, first hour, before DMSO): Dopaminergic effects were seen but they were weak
